Reference: US20260028404A1 (UNIVERSITY OF KANSAS, priority 2022, published 2026)

Experiment: Window of opportunity trial: adverse events of intratumoral/peritumoral Copaxone injections
Format: in vivo, human
Procedure: (§1) Subjects whose tumors were accessible for intratumoral, percutaneous injection and were planned for surgery as the primary treatment were eligible if no other treatment between initial biopsy and surgery was anticipated. During the treatment period, eligible subjects received Copaxone® at 40 mg intratumorally for up to 3 times a week and at least 48 hours apart until 24 hours before the planned surgery. This dosing regimen was consistent with the label for subcutaneous injections of Copaxone®.
This study is an open label single arm window of opportunity trial in patients with resectable solid malignancies whose planned primary treatment is surgical resection conducted at the University of Kansas Cancer Center (KUCC). The patients had to be at least 18 years old with previously untreated histologically confirmed malignant tumor that is percutaneously accessible for intratumoral injection. The injectable tumor must be at least 5 mm in diameter using standard measuring tape. Pretreatment archival tumor tissue consisting of formalin-fixed, paraffin-embedded (FFPE) tumor tissue obtained from standard of care diagnostic biopsy must be available in order to be eligible for the trial. Patients whose lesions are in close proximity to vascular structures (i.e., carotid artery or tumors close to other vital organs such as the trachea), with mucosal lesions only, with known hypersensitivity to Copaxone or with a known condition that leads to immunosuppression such as AIDS or concurrent use of immunosuppressive therapy were considered ineligible. Approval for the study was granted through the institutional review board at University of Kansas Cancer Center and all patients provided written informed consent before study entry. This trial was performed according to the Declaration of Helsinki principles. The KUCC Data and Safety Monitoring Committee (DSMC) performed the oversight of the monitoring of participant safety, conduct and scientific progress of research protocols, and the validity and integrity of the data for clinical trials.
Study treatment: Treatment was administered on an outpatient basis prior to surgery. […] Doses were administered at least 48 hours apart and the last dose given within 96 hours of surgery. This window of 96 hours was chosen because we hypothesized that any immune changes due to Copaxone may remain apparent within 96 hours. No dose adjustments, modifications or delays due to Copaxone® related toxicity were allowed.
Efforts were made to administer the full dose into the lesion, unless it was deemed not practicable by the treating investigator. Tumors were injected using a 28-gauge or smaller needle. Glatiramer acetate (Copaxone®) was thoroughly distributed within the injected tumor using a “fanning method” (to distribute the injection across several angles throughout the lesion to maximize the spread of glatiramer acetate (Copaxone®) in the tumor). The use of local anesthetic prior to Copaxone injection was allowed.
Safety Assessments: Adverse events were assessed at baseline, during Copaxone® dose administration and at time of surgery or end of treatment visit. The revised NCI Common Terminology Criteria for Adverse Events (CTCAE) version 5.0 was utilized for AE reporting and toxicity assessment. Complete blood count, chemistry and INR were done at baseline.
as §1, with “A single-arm, open-label, preoperative window of opportunity trial was conducted to evaluate the feasibility, safety, and local effects of intratumoral/peritumoral injections of Copaxone®. Subjects” for “Subjects”, “This dosing regimen was consistent with the label for subcutaneous injections of Copaxone®.” left out

## Glatiramer acetate [GA]
intratumoral/peritumoral injection, patients
  injection site reactions (overall): Injection site reactions were observed in and around tumor tissues
Nine patients, Copaxone 40 mg intratumoral
  grade 2 or higher adverse events: no grade 2 or higher adverse events
Nine patients, Copaxone 40 mg intratumoral, 1-3 injections
  treatment related adverse events reported (number): 3
Nine patients, Copaxone 40 mg intratumoral, CTCAE v5.0
  grade of treatment related adverse events: grade 1
Patient BCCa-Left Nasal Ala, 2 Copaxone injections
  Injection Site Reaction: Grade 1-Mild
Patient BCCa-Left Nasal Ala, 2 Copaxone injections, listed as Copaxone
  Injection Site Reaction: grade 1 injection site reaction described as pressure and itching
Patient BCCa-Right Flank, 3 Copaxone injections
  Injection Site Reaction: 1st inj. - Pain
Patient BCCa-Right Post. Neck, 2 Copaxone injections
  Injection Site Reaction: Grade 1-Mild
Patient BCCa-Right Post. Neck, 2 Copaxone injections, listed as Copaxone
  Injection Site Reaction: grade 1 burning with injection of lidocaine
Patient Melanoma-Left Scalp, 2 Copaxone injections
  Injection Site Reaction: None
Patient Melanoma-Mid Back, 2 Copaxone injections
  Injection Site Reaction: None
Patient SCCa-Right Cheek, 1 Copaxone injection
  Injection Site Reaction: None
patients
  tolerability of intratumoral injections: well tolerated
